What all share (assay type): in vivo
The subject of assay [1] is Amaranthus retoflexus (AMARE). Kind of assay: Pre-emergence biological efficacy, glasshouse pot test. The following applies: Amaranthus retroflexus, 312 h. Put shortly: (§1)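 Damage was rated on a 0–100 scale 13 days after treatment, with plants kept at 24/16° C, 14 h light and 65% humidity. The pre-emergence spray, at 1000 or 250 g/ha in acetone/water 50:50 with 0.5% Tween 20, was applied one day after sowing.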

Assay [2] has as its system Alopecurus myosuroides (ALOMY). The description is as above. The following applies: 312 h. Put shortly: as §1
For assay [3], the system named is Setaria faberi (SETFA). The description is as above. To be noted: 312 h. Put shortly:
as §1

Assay [4] has as its system Ipomea hederaceae (IPOHE). Described as above. To be noted: Ipomoea hederacea, 312 h. Put shortly: as §1
For assay [5], the system named is Echinochloa crus-galli (ECHCG). The assay is described as above. The following applies: 312 h. Put shortly: as §1
For assay [6], the system named is Solanum nigrum (SOLNI). Described as above. The following applies: 312 h. Put shortly: as §1
In assay [7] the test system is Amaranthus retoflexus (AMARE). Kind of assay: Post-emergence biological efficacy, glasshouse pot test. To be noted: Amaranthus retroflexus, 312 h. Put shortly: (§2)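 Scored 13 days after spraying on a 0 (no damage) to 100 (total damage) scale. Treatment was a post-emergence spray at 1000 or 250 g/ha, from acetone/water 50:50 plus 0.5% Tween 20, onto 8-day-old plants in soil pots. Growth at 24/16° C, 14 h photoperiod, 65% humidity, watered twice daily.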

For assay [8], the system named is Alopecurus myosuroides (ALOMY). Described as above. To be noted: 312 h. Put shortly:
as §2

Assay [9] deals with Setaria faberi (SETFA). The assay is described as above. To be noted: 312 h. Put shortly: as §2
Assay [10] has as its system Ipomea hederaceae (IPOHE). Described as above. To be noted: Ipomoea hederacea, 312 h. Put shortly: as §2
For assay [11], the system named is Echinochloa crus-galli (ECHCG). The assay is described as above. The following applies: 312 h. Put shortly:
as §2

The test system of assay [12] is Solanum nigrum (SOLNI). The assay is described as above. The following applies: 312 h. Put shortly:
as §2

The mark [13] stands for this setting: pre-emergence, rate 1,000 g/ha, evaluated after 13 days (100=total damage to plant; 0=no damage), read-out: Percentage damage caused to weed species, AMARE.
[14] abbreviates: pre-emergence, rate 1,000 g/ha, evaluated after 13 days (100=total damage to plant; 0=no damage), read-out: Percentage damage caused to weed species, ALOMY.
The mark [15] stands for this setting: pre-emergence, rate 1,000 g/ha, evaluated after 13 days (100=total damage to plant; 0=no damage), read-out: Percentage damage caused to weed species, SETFA.
The mark [16] stands for this setting: pre-emergence, rate 1,000 g/ha, evaluated after 13 days (100=total damage to plant; 0=no damage), read-out: Percentage damage caused to weed species, IPOHE.
Setting [17] is: pre-emergence, rate 1,000 g/ha, evaluated after 13 days (100=total damage to plant; 0=no damage), read-out: Percentage damage caused to weed species, ECHCG.
The mark [18] stands for this setting: pre-emergence, rate 1,000 g/ha, evaluated after 13 days (100=total damage to plant; 0=no damage), read-out: Percentage damage caused to weed species, SOLNI.
Setting [19] is: Rate 1,000 g/ha, post-emergence spray, evaluated after 13 days (100=total damage to plant; 0=no damage to plant), read-out: Percentage damage caused to weed species, post-emergence, AMARE.
[20] abbreviates: Rate 1,000 g/ha, post-emergence spray, evaluated after 13 days (100=total damage to plant; 0=no damage to plant), read-out: Percentage damage caused to weed species, post-emergence, ALOMY.
Setting [21] is: Rate 1,000 g/ha, post-emergence spray, evaluated after 13 days (100=total damage to plant; 0=no damage to plant), read-out: Percentage damage caused to weed species, post-emergence, SETFA.
[22] abbreviates: Rate 1,000 g/ha, post-emergence spray, evaluated after 13 days (100=total damage to plant; 0=no damage to plant), read-out: Percentage damage caused to weed species, post-emergence, IPOHE.
Where [23] appears, read: Rate 1,000 g/ha, post-emergence spray, evaluated after 13 days (100=total damage to plant; 0=no damage to plant), read-out: Percentage damage caused to weed species, post-emergence, ECHCG.
Where [24] appears, read: Rate 1,000 g/ha, post-emergence spray, evaluated after 13 days (100=total damage to plant; 0=no damage to plant), read-out: Percentage damage caused to weed species, post-emergence, SOLNI.
Where [25] appears, read: pre-emergence, 1,000 g/ha, evaluated after 13 days (100=total damage; 0=no damage), read-out: Percentage damage AMARE.
[26] abbreviates: pre-emergence, 1,000 g/ha, evaluated after 13 days (100=total damage; 0=no damage), read-out: Percentage damage ALOMY.
Where [27] appears, read: pre-emergence, 1,000 g/ha, evaluated after 13 days (100=total damage; 0=no damage), read-out: Percentage damage SETFA.
Where [28] appears, read: pre-emergence, 1,000 g/ha, evaluated after 13 days (100=total damage; 0=no damage), read-out: Percentage damage IPOHE.
Where [29] appears, read: pre-emergence, 1,000 g/ha, evaluated after 13 days (100=total damage; 0=no damage), read-out: Percentage damage ECHCG.
[30] abbreviates: pre-emergence, 1,000 g/ha, evaluated after 13 days (100=total damage; 0=no damage), read-out: Percentage damage SOLNI.
The mark [31] stands for this setting: post-emergence, 1,000 g/ha, evaluated after 13 days (100=total damage; 0=no damage), read-out: Percentage damage caused to weed species, AMARE.
The mark [32] stands for this setting: post-emergence, 1,000 g/ha, evaluated after 13 days (100=total damage; 0=no damage), read-out: Percentage damage caused to weed species, ALOMY.
The mark [33] stands for this setting: post-emergence, 1,000 g/ha, evaluated after 13 days (100=total damage; 0=no damage), read-out: Percentage damage caused to weed species, SETFA.
[34] abbreviates: post-emergence, 1,000 g/ha, evaluated after 13 days (100=total damage; 0=no damage), read-out: Percentage damage caused to weed species, IPOHE.
Setting [35] is: post-emergence, 1,000 g/ha, evaluated after 13 days (100=total damage; 0=no damage), read-out: Percentage damage caused to weed species, ECHCG.
The mark [36] stands for this setting: post-emergence, 1,000 g/ha, evaluated after 13 days (100=total damage; 0=no damage), read-out: Percentage damage caused to weed species, SOLNI.

Structures are written as SMILES.

With `C=Cc1c(NCc2ccco2)nc(-c2ccc(Cl)cc2)nc1C(=O)OC` [Compound 67-125, 2-(4-Chlorophenyl)-5-ethenyl-4-(furan-2-ylmethylamino)-6-methoxycarbonyl-pyrimidine], the pest or weed control at 1000 g/ha in [1] (setting [13]) was 100%; in assay [2] (setting [14]) it was 50%; with Setaria faberi (SETFA) [3] (setting [15]) it was 10%; in assay [4] (setting [16]) it was 40%; in [5] (setting [17]) it was 20%; in the assay on Solanum nigrum (SOLNI) [6] (setting [18]), 20%. In addition, the pest or weed control at 1000 g/ha in assay [7] (setting [19]) worked out at 100%; in [8] (setting [20]), 30%; with Setaria faberi (SETFA) [9] (setting [21]), 0%; in [10] (setting [22]), 80%; in [11] (setting [23]) it was 40%; with Solanum nigrum (SOLNI) [12] (setting [24]), 90%.
In the case of `COC(=O)c1nc(C2CC2)nc(NCC2CCN(OC(=O)C(C)(C)C)CC2)c1Cl` [Compound 4-58], the pest or weed control at 1000 g/ha in assay [1] (setting [25]) is 80%; in assay [2] (setting [26]) it was 0%; with Setaria faberi (SETFA) [3] (setting [27]), 0%; in assay [4] (setting [28]), 20%; in assay [5] (setting [29]), 0%; in the assay with Solanum nigrum (SOLNI) [6] (setting [30]), 30%. Moreover, the pest or weed control at 1000 g/ha in [7] (setting [31]) is 70%; in [8] (setting [32]) it was 0%; in the assay on Setaria faberi (SETFA) [9] (setting [33]) it was 50%; in [10] (setting [34]), 50%; in assay [11] (setting [35]), 40%; in the assay with Solanum nigrum (SOLNI) [12] (setting [36]) it was 70%.
Regarding `CCN(Cc1ccc(F)cc1)c1nc(C2CC2)nc(C(=O)OC)c1Cl` [Compound 6-66, 5-Chloro-2-cyclopropyl-4-[N-ethyl-N-(4-fluorophenylmethyl)-amino]-6-methoxycarbonyl-pyrimidine], the pest or weed control at 1000 g/ha worked out at 50% in assay [1] (setting [13]); 20% in assay [2] (setting [14]); 10% with Setaria faberi (SETFA) [3] (setting [15]); 80% in [4] (setting [16]); 0% in assay [5] (setting [17]); 20% in the assay with Solanum nigrum (SOLNI) [6] (setting [18]). Also, the pest or weed control at 1000 g/ha in assay [7] (setting [19]) was determined as 100%; in assay [8] (setting [20]) it was 40%; in the assay with Setaria faberi (SETFA) [9] (setting [21]), 90%; in assay [10] (setting [22]) it was 100%; in [11] (setting [23]), 60%; in the assay on Solanum nigrum (SOLNI) [12] (setting [24]), 90%.
`O=C(NCc1cccs1)c1nc(C2CC2)nc(NCc2cccs2)c1Cl` [Compound 265-4, 5-Chloro-2-cyclopropyl-4-(thiophen-2-ylmethylamino)-6-(thiophen-2-yl-methylamino-carbonyl)-pyrimidine]: the pest or weed control at 1000 g/ha in assay [1] (setting [13]) is 20%; in [2] (setting [14]), 0%; with Setaria faberi (SETFA) [3] (setting [15]) it was 0%; in assay [4] (setting [16]), 0%; in assay [5] (setting [17]), 0%; with Solanum nigrum (SOLNI) [6] (setting [18]), 0%. For the same molecule, the pest or weed control at 1000 g/ha amounted to 50% in [7] (setting [19]); 20% in assay [8] (setting [20]); 20% with Setaria faberi (SETFA) [9] (setting [21]); 50% in assay [10] (setting [22]); 20% in [11] (setting [23]); 50% in the assay with Solanum nigrum (SOLNI) [12] (setting [24]).
`COC(=O)c1nc(C2CC2)nc(N(C)Cc2cccc(OC)c2)c1Cl` [Compound 5-79, 5-Chloro-2-cyclopropyl-6-methoxycarbonyl-4-[N-(3-methoxy-phenylmethyl)-N-methyl-amino]-pyrimidine]: the pest or weed control at 1000 g/ha in assay [1] (setting [13]) is 70%; in [2] (setting [14]) it was 0%; in the assay with Setaria faberi (SETFA) [3] (setting [15]), 0%; in [4] (setting [16]), 50%; in [5] (setting [17]), 0%; in the assay on Solanum nigrum (SOLNI) [6] (setting [18]), 40%. Also, the pest or weed control at 1000 g/ha in [7] (setting [19]) was found to be 100%; in [8] (setting [20]), 0%; in the assay on Setaria faberi (SETFA) [9] (setting [21]) it was 30%; in [10] (setting [22]) it was 70%; in assay [11] (setting [23]), 0%; in the assay with Solanum nigrum (SOLNI) [12] (setting [24]) it was 80%.
Take `COC(=O)c1nc(C2CC2)nc(NC(C)C(O)c2ccc(O)cc2)c1Cl` (stereo not drawn) [Compound 4-271, 5-Chloro-2-cyclopropyl-4-[2-hydroxy-2-(4-hydroxyphenyl)-1-methyl-ethylamino]-6-methoxycarbonyl-pyrimidine]: the pest or weed control at 1000 g/ha in assay [1] (setting [25]) is 100%; in assay [2] (setting [26]) it was 20%; in the assay on Setaria faberi (SETFA) [3] (setting [27]), 30%; in assay [4] (setting [28]), 100%; in assay [5] (setting [29]), 20%; in the assay on Solanum nigrum (SOLNI) [6] (setting [30]) it was 90%. The pest or weed control at 1000 g/ha in assay [7] (setting [31]) worked out at 100%; in [8] (setting [32]), 30%; in the assay with Setaria faberi (SETFA) [9] (setting [33]), 80%; in [10] (setting [34]) it was 100%; in [11] (setting [35]) it was 70%; in the assay with Solanum nigrum (SOLNI) [12] (setting [36]) it was 90%.
`COC(=O)c1nc(C2CC2)nc(NCc2cccc(Br)c2)c1Cl` [Compound 4-68, 4-(3-Bromophenyl-methylamino)5-chloro-2-cyclopropyl-6-methoxycarbonyl-pyrimidine]: the pest or weed control at 1000 g/ha in assay [1] (setting [25]) stood at 50%; in assay [2] (setting [26]) it was 10%; with Setaria faberi (SETFA) [3] (setting [27]), 10%; in assay [4] (setting [28]) it was 60%; in assay [5] (setting [29]), 10%; in the assay on Solanum nigrum (SOLNI) [6] (setting [30]) it was 20%. The pest or weed control at 1000 g/ha in assay [7] (setting [31]) is 100%; in [8] (setting [32]), 20%; in the assay on Setaria faberi (SETFA) [9] (setting [33]), 90%; in assay [10] (setting [34]), 100%; in assay [11] (setting [35]) it was 60%; with Solanum nigrum (SOLNI) [12] (setting [36]) it was 90%.
